Test results as given in patent publication US10206937B2, “Boronic acid derivatives and therapeutic uses thereof” (Qpex Biopharma, Inc., priority 2014, dated 2019).

Tested on: strains of Enterobacteriaceae producing various carbapenemases (class A, D and B; 104 strains)
Experiment: Antibiotics potentiation by Compound 27 (MIC; meropenem, doripenem, ertapenem, cefepime)
Assay type: cell-based
Conditions: + 27 = with Compound 27 at fixed 4 μg/ml

C[C@@H](O)[C@H]1C(=O)N2C(C(=O)O)=C(S[C@@H]3CN[C@H](C(=O)N(C)C)C3)[C@H](C)[C@H]12 [M]
MIC (strain KP1081 Klebsiella pneumoniae (NDM-1, TEM-1, SHV-11, CMY-6, CTX-M-15)): Z (MIC of greater than 10 μg/mL)
MIC (strain KP1082 Klebsiella pneumoniae (KPC-2, SHV-1)): Y (MIC of 1 μg/mL to 10 μg/mL)
MIC (strain KP1083 Klebsiella pneumoniae (KPC-3, SHV-1, TEM-1)): Y (MIC of 1 μg/mL to 10 μg/mL)
MIC (strain KP1084 Klebsiella pneumoniae (KPC-3, SHV-11, TEM-1)): Z (MIC of greater than 10 μg/mL)
MIC (strain KP1086 Klebsiella pneumoniae (OXA-48, CTX-M-15, TEM, SHV)): Z (MIC of greater than 10 μg/mL)
MIC (strain KP1087 Klebsiella pneumoniae (KPC-2, CTX-M-15, SHV-11, TEM-1)): Z (MIC of greater than 10 μg/mL)
MIC (strain KP1088 Klebsiella pneumoniae (KPC-3, SHV-11, TEM-1)): Y (MIC of 1 μg/mL to 10 μg/mL)
MIC (strain KP1089 Klebsiella pneumonias (OXA-181, CTX-M-15, TEM, SHV)): Y (MIC of 1 μg/mL to 10 μg/mL)
MIC (strain KP1095 Klebsiella pneumoniae (KPC-2 TEM-1 SHV-1)): Y (MIC of 1 μg/mL to 10 μg/mL)
MIC (strain KP1096 Klebsiella pneumoniae (KPC-2 TEM-181 SHV-11)): Y (MIC of 1 μg/mL to 10 μg/mL)
MIC (strain KP1097 Klebsiella pneumonias (IMP-1)): Z (MIC of greater than 10 μg/mL)
MIC (strain KP1098 Klebsiella pneumoniae (IMP-26)): Z (MIC of greater than 10 μg/mL)
MIC (strain KP1104 Klebsiella pneumoniae (KPC TEM)): Z (MIC of greater than 10 μg/mL)
MIC (strain KP1105 Klebsiella pneumoniae (KPC TEM SHV)): Z (MIC of greater than 10 μg/mL)
MIC (strain KP1159 Klebsiella pneumoniae (SHV-1(2b); CTX-M-15; IMP-4)): Z (MIC of greater than 10 μg/mL)
MIC (strain KP1160 Klebsiella pneumoniae (SHV-28(2be); CTX-M-15; IMP-26)): Z (MIC of greater than 10 μg/mL)
MIC (strain KP1161 Klebsiella pneumoniae (NDM-1)): Z (MIC of greater than 10 μg/mL)
MIC (strain KP1164 Klebsiella pneumoniae (SHV-12(2be); VIM-1)): Z (MIC of greater than 10 μg/mL)
MIC (strain KP1165 Klebsiella pneumoniae (SHV-11(2b); CTX-M-15; VIM-27)): Z (MIC of greater than 10 μg/mL)
MIC (strain KP1166 Klebsiella pneumoniae (SHV-5(2be); VIM-26)): Z (MIC of greater than 10 μg/mL)
MIC (strain KP1167 Klebsiella pneumoniae (SHV-12(2be); VIM-1)): X (MIC of less than 1 μg/mL)
MIC (strain KP1169 Klebsiella pneumoniae (SHV-11(2b); VIM-1)): Z (MIC of greater than 10 μg/mL)
MIC (strain KP1170 Klebsiella pneumoniae (SHV-11(2b); CTX-M-15; NDM-1)): Z (MIC of greater than 10 μg/mL)
MIC (strain KP1172 Klebsiella pneumoniae (SHV-31(2be); DHA-1; VIM-1)): Y (MIC of 1 μg/mL to 10 μg/mL)
MIC (strain KP1173 Klebsiella pneumoniae (TEM-33(2br); CTX-M-15; IMP-1)): Y (MIC of 1 μg/mL to 10 μg/mL)
MIC (strain KP1174 Klebsiella pneumoniae (CTX-M-14; IMP-1)): Y (MIC of 1 μg/mL to 10 μg/mL)
MIC (strain KP1175 Klebsiella pneumoniae (SHV-OSBL(2b); VIM-1)): Z (MIC of greater than 10 μg/mL)
MIC (strain KP1177 Klebsiella pneumoniae (SHV-OSBL(2b), TEM-OSBL(2b); CTX-M-15; NDM-1)): Z (MIC of greater than 10 μg/mL)
MIC (strain KP1178 Klebsiella pneumoniae (SHV-OSBL(2b;) TEM-OSBL(2b); CTX-M-15; NDM-1)): Z (MIC of greater than 10 μg/mL)
MIC (strain KP1179 Klebsiella pneumoniae (SHV-12(2be), TEM-OSBL(2b); CTX-M-15; NDM-7)): Z (MIC of greater than 10 μg/mL)
MIC (strain KP1180 Klebsiella pneumoniae (SHV-OSBL(2b), TEM-OSBL(2b); CTX-M-15; DHA-1; IMP-26)): Y (MIC of 1 μg/mL to 10 μg/mL)
MIC (strain KP1181 Klebsiella pneumoniae (SHV-OSBL(2b); CTX-M-15; IMP-26)): Y (MIC of 1 μg/mL to 10 μg/mL)
MIC (strain KP1183 Klebsiella pneumoniae (SHV-OSBL(2b), TEM-OSBL(2b); CTX-M-15; NDM-1)): Z (MIC of greater than 10 μg/mL)
MIC (strain KP1184 Klebsiella pneumoniae (SHV-OSBL(2b); IMP-1)): Y (MIC of 1 μg/mL to 10 μg/mL)
MIC (strain KP1185 Klebsiella pneumoniae (SHV-OSBL(2b), TEM-OSBL(2b); IMP-4)): Z (MIC of greater than 10 μg/mL)
MIC (strain KP1186 Klebsiella pneumoniae (CTX-M-15; NDM-1)): Z (MIC of greater than 10 μg/mL)
MIC (strain KP1187 Klebsiella pneumoniae (SHV-55(2be), TEM-OSBL(2b); CTX-M-15; NDM-1)): Z (MIC of greater than 10 μg/mL)
MIC (strain KP1188 Klebsiella pneumoniae (SHV-OSBL(2b); CTX-M-15; NDM-1)): Z (MIC of greater than 10 μg/mL)
MIC (strain KP1189 Klebsiella pneumoniae (TEM-OSBL(2b); CTX-M-15; CTX-M-27; NDM-1)): Z (MIC of greater than 10 μg/mL)
MIC (strain KPM1123 Klebsiella pneumoniae (KPC-2 TEM SHV)): Z (MIC of greater than 10 μg/mL)
MIC (strain KPM1202 Klebsiella pneumoniae (KPC SHV TEM)): Y (MIC of 1 μg/mL to 10 μg/mL)
MIC (strain KPM1203 Klebsiella pneumoniae (KPC SHV TEM)): Y (MIC of 1 μg/mL to 10 μg/mL)
MIC (strain KPM1344 Klebsiella pneumoniae (VIM-1)): Y (MIC of 1 μg/mL to 10 μg/mL)
MIC (strain KPM1345 Klebsiella pneumoniae (VIM-1 SHV)): Z (MIC of greater than 10 μg/mL)
MIC (strain KPM1347 Klebsiella pneumoniae (NDM-1 SHV CTX-M-15)): Z (MIC of greater than 10 μg/mL)
MIC (strain KX1017 Klebsiella oxytoca (KPC-2, OXA-2, SHV-30)): Y (MIC of 1 μg/mL to 10 μg/mL)
MIC (strain KX1018 Klebsiella oxytoca (KPC-2, SHV-40, OXY-1)): Y (MIC of 1 μg/mL to 10 μg/mL)
MIC (strain KX1019 Klebsiella oxytoca (KPC-2, OXA-2)): Y (MIC of 1 μg/mL to 10 μg/mL)
MIC (strain PM1024 Proteus mirabilis (TEM-1(2b); CMY-16; VIM-1)): Y (MIC of 1 μg/mL to 10 μg/mL)
MIC (strain PM1026 Proteus mirabilis (DHA-1; IMP-26)): Z (MIC of greater than 10 μg/mL)
MIC (strain PM1027 Proteus mirabilis (VIM-5)): Z (MIC of greater than 10 μg/mL)
MIC (strain SM1023 Serratia marcescens (VIM-4)): Z (MIC of greater than 10 μg/mL)
